Target: T1, recombinant human DPP-1 (Cathepsin C) (Homo sapiens, UniProt P53634)
T1 construct: made in house
Test: DPP-1 Inhibition Assay (in vitro), fluorogenic substrate GR-AMC
Format: biochemical
Details: 0.15 nM DPP-1, 10 uM GR-AMC, pH 7.0, room temperature; average value where tested multiple times
Protocol: Test compounds were assessed for DPP-1 (Cathepsin C) inhibitory activity using a fluorogenic substrate, GR-AMC (Glycine-Arginine-amino-4-methylcoumarin, Bachem, 1-1215). The amount of amino-methylcoumarin released is proportional to the DPP-1 activity, and the reaction is monitored kinetically with a Molecular Devices plate reader using black 96-well plates.
All compounds were tested under room temperature conditions. The assay buffer consisted of 50 mM HEPES, pH 7.0, 100 mM NaCl, 2 mM glutathione (GSH), and 0.002% TWEEN 20. GSH and TWEEN 20 were added to the buffer fresh daily. Just prior to use, an in-house preparation of recombinant human DPP-1 (240 μM stock, MW 49.6 kD) was diluted 600-fold in assay buffer containing fresh 2 mM dithiothreitol (DTT) to activate the enzyme, then diluted into assay buffer (without DTT) 133-fold for a DPP-1 working solution of 3 nM. Test compounds were diluted in DMSO for 20× their final assay concentrations.
Additions to a 96-well black Costar 3915 plates were as follows: 90 μL of 11 μM GR-AMC, 5 μL test compound (followed by mixing), and 5 μL 3 nM DPP1 to start the reaction. Fluorescent reactions were monitored kinetically at 360 nm excitation, 440 nm emission on a Molecular Devices Spectramax XPS reader. The Softmax Pro software of the reader determined the initial velocity of the selected data (the first 3-5 minutes of the reaction), and the best linear regression fit of the initial kinetic data. Final assay conditions were 0.15 nM DPP-1, 10 uM GR-AMC, 50 mM HEPES, pH 7.0, 100 mM NaCl, 2 mM GSH, 0.002% TWEEN 20, 1 uM DTT, 5.0% DMSO. Initial velocity rates were plotted vs. test compound concentration by use of a four-parameter logistics equation (nonlinear regression, sigmoidal dose-response (variable slope), with fixed Hill (1.0) using GraphPad Prism® software for determination of DPP-1 IC50. Within-run assay coefficient of variation (CV) was generally <10%; between-run CV <20%.
Representative compounds of the present invention were tested according to the procedure as described above, with results as listed in Table 12, below.

T1 sequence (P53634 25-463): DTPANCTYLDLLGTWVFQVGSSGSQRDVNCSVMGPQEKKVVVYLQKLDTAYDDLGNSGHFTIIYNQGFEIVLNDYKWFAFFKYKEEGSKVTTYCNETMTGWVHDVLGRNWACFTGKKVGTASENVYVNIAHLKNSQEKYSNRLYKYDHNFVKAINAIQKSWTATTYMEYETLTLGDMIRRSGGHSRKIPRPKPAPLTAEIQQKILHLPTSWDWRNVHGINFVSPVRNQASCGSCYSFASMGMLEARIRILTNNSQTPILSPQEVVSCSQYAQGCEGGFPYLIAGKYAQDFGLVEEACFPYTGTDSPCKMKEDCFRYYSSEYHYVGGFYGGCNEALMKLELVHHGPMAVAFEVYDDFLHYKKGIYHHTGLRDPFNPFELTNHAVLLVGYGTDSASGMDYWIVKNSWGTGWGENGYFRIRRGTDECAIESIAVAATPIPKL

SMILES	IC50 [nM]
CC[C@H](N)C(=O)NCCCc1cc2cc(C(=O)Nc3cccc(F)c3)ccc2[nH]1 [Compound 90]	900
CC[C@H](N)C(=O)NCCCc1cc2cc(C(=O)Nc3cc(OC)cc(OC)c3)ccc2o1 [Compound 94]	1500
CC[C@H](N)C(=O)NCCCc1cc2ccc(C(=O)N(CC)CC)cc2o1 [Compound 46]	42000
CC[C@H](N)C(=O)N(C)CCCc1cc2cc(C(=O)Nc3ccc(OC)c(OC)c3)ccc2[nH]1 [Compound 107]	9000
N[C@@H](Cc1cccs1)C(=O)NCCc1nc2ccccc2[nH]1 [Compound 37, (S)—N-(2-(1H-benzo[d]imidazol-2-yl)ethyl)-2-amino-3-(thiophen-2-yl)propanamide]	4250
CC[C@H](N)C(=O)NCCCc1cc2cc(C(=O)NCc3ccccc3)ccc2o1 [Compound 53]	7400
CC[C@H](N)C(=O)NCCCc1cc2cc(-c3ccc(OC(F)(F)F)cc3)ccc2[nH]1 [Compound 105]	860
CC[C@H](N)C(=O)NCCCc1cc2cc(C(=O)O)ccc2o1 [Compound 74]	> 10000
CC[C@H](N)C(=O)NCCCc1cc2cc(C(=O)Nc3cccnc3)ccc2o1 [Compound 52]	4000
COc1ccc(-c2ccc3[nH]c(C4CCN(C(=O)C(N)c5ccsc5)CC4)cc3c2)cc1OC (stereo not shown) [Compound 30]	> 20000
CC[C@H](N)C(=O)NCCCc1cc2cc(-c3ccccc3C(N)=O)ccc2[nH]1 [Compound 116]	2000
CC[C@H](N)C(=O)NCCCc1cc2cc(C(=O)Nc3ccc(F)cc3)ccc2[nH]1 [Compound 79]	1300
CC[C@H](N)C(=O)NCCCc1cc2cc(C(=O)Nc3ccccc3F)ccc2[nH]1 [Compound 87]	2600
CC[C@H](NC(=O)OC(C)(C)C)C(=O)NCCCc1cc2cc(C(=O)O)ccc2[nH]1 [Compound 47, (S)-2-(3-(2-(tert-butoxycarbonylamino)butanamido)propyl)-1H-indole-5-carboxylic acid]	53000
COc1ccc(-c2ccc3[nH]c(C4CCN(C(=O)[C@@H](N)Cc5ccc(Cl)s5)CC4)cc3c2)cc1OC [Compound 24]	5800
CC[C@H](N)C(=O)NCCCc1cc2cc(C(=O)Nc3ccc(C)cc3)ccc2[nH]1 [Compound 75]	1100
N[C@@H](Cc1cccs1)C(=O)NCCc1cc2ccccc2o1 [Compound 35]	1300
COc1ccc(-c2ccc3[nH]c(C4CCN(C(=O)[C@@H](N)Cc5cn(C)cn5)CC4)cc3c2)cc1OC [Compound 14]	3370
CC[C@H](N)C(=O)NCCCc1cc2cc(C(=O)Nc3cc(-c4ccccc4)[nH]n3)ccc2[nH]1 [Compound 62]	2800
CC[C@H](N)C(=O)NCCCc1cc2cc(C(=O)Nc3ccc(C(C)(C)C)cc3)ccc2[nH]1 [Compound 78]	910
COc1ccc(-c2ccc3[nH]c(C4CCN(C(=O)C(N)c5cccs5)CC4)cc3c2)cc1OC (stereo not shown) [Compound 28]	> 20000
CC[C@H](N)C(=O)NCCCc1cc2cc(C(=O)N3CCCc4ccccc43)ccc2o1 [Compound 71]	2600
CC[C@H](N)C(=O)NCCCc1cc2cc(-c3ccccc3)ccc2o1 [Compound 45]	9600
CC[C@H](N)C(=O)NCCc1cc2cc(C(=O)Nc3ccc(OC)c(OC)c3)ccc2[nH]1 [Compound 36]	> 10000
CC[C@H](N)C(=O)NCCCc1cc2ccccc2[nH]1 [Compound 40, (S)—N-(3-(1H-indol-2-yl)propyl)-2-aminobutanamide]	2900

These reach a lower IC50. Values come first.

IC50 [nM]	SMILES
710	CC[C@H](N)C(=O)NCCCc1cc2cc(C(=O)Nc3cccc4ccncc34)ccc2o1 [Compound 68]
700	CC[C@H](N)C(=O)NCCCc1cc2cc(C(=O)Nc3ccc4ncsc4c3)ccc2o1 [Compound 57]
700	CC[C@H](N)C(=O)NCCCc1cc2cc(-c3cccc(S(N)(=O)=O)c3)ccc2[nH]1 [Compound 113]
690	CC[C@H](N)C(=O)NCCCc1cc2cc(-c3ccc(C(N)=O)cc3)ccc2[nH]1 [Compound 111]
680	CC[C@H](N)C(=O)NCCCc1cc2cc(C(=O)Nc3ccc(C(C)C)cc3)ccc2[nH]1 [Compound 80]
670	CC[C@H](N)C(=O)NCCCc1cc2cc(-c3ccncc3)ccc2[nH]1 [Compound 114]
590	N[C@@H](Cc1cccs1)C(=O)N1CCC(c2cc3cc(-c4ccc(C(=O)O)cc4)ccc3[nH]2)CC1 [Compound 27]
520	CC[C@H](N)C(=O)NCCCc1cc2cc(-c3ccccc3)ccc2[nH]1 [Compound 100]
480	CC[C@H](N)C(=O)NCCCc1cc2cc(Oc3ccccc3)ccc2[nH]1 [Compound 98]
430	CC[C@H](N)C(=O)NCCCc1cc2cc(C(=O)Nc3c(C)cccc3C)ccc2o1 [Compound 95]
390	CC[C@H](N)C(=O)NCCCc1cc2cc(-c3cccc(C(N)=O)c3)ccc2[nH]1 [Compound 103]
370	CC[C@H](N)C(=O)NCCCc1cc2cc(-c3cc(OC)cc(OC)c3)ccc2[nH]1 [Compound 96]
340	CC[C@H](N)C(=O)NCCCc1cc2cc(-c3ccc(OC)cc3)ccc2[nH]1 [Compound 104]
300	NC(=O)c1cccc(-c2ccc3[nH]c(C4CCN(C(=O)[C@@H](N)Cc5cccs5)CC4)cc3c2)c1 [Compound 5]
270	N[C@@H](Cc1cccs1)C(=O)N1CCC(c2cc3cc(-c4ccc5c(c4)OCCO5)ccc3[nH]2)CC1 [Compound 3]
250	COc1ccc(-c2ccc3[nH]c(C4CCN(C(=O)[C@@H](N)Cc5cccs5)CC4)cc3c2)cn1 [Compound 25]
240	CC[C@H](N)C(=O)NCCCc1cc2cc(C(=O)Nc3ccc(OC)c(OC)c3)ccc2[nH]1 [Compound 50, (S)-2-(3-(2-aminobutanamido)propyl)-N-(3,4-dimethoxyphenyl)-1H-indole-5-carboxamide]
240	NC(=O)c1cccc(-c2ccc3[nH]c(C4CCN(C(=O)[C@@H](N)Cc5cccs5)CC4)nc3c2)c1 [Compound 19]
220	CC[C@H](N)C(=O)NCCCc1cc2cc(C(=O)Nc3cccc4ncccc34)ccc2o1 [Compound 55]
200	N#Cc1cccc(-c2ccc3[nH]c(C4CCN(C(=O)[C@@H](N)Cc5cccs5)CC4)cc3c2)c1 [Compound 20]
110	N[C@@H](Cc1cccs1)C(=O)N1CCC(c2cc3cc(-c4cccnc4)ccc3[nH]2)CC1 [Compound 23]
94	COc1ccc(-c2ccc3[nH]c(C4CCN(C(=O)[C@@H](N)Cc5cccs5)CC4)cc3c2)cc1OC [Compound 2, (S)-2-amino-1-(4-(5-(3,4-dimethoxyphenyl)-1H-indol-2-yl)piperidin-1-yl)-3-(thiophen-2-yl)propan-1-one]
82	COc1ccc(NC(=O)c2ccc3[nH]c(CCCN(C)C(=O)[C@@H](N)Cc4cccs4)cc3c2)cc1OC [Compound 106, (S)-2-(3-(2-amino-N-methyl-3-(thiophen-2-yl)propanamido)propyl)-N-(3,4-dimethoxyphenyl)-1H-indole-5-carboxamide]
81	COc1ccc(NC(=O)c2ccc3[nH]c(CCCNC(=O)[C@@H](N)Cc4nccs4)cc3c2)cc1OC [Compound 117, (S)-2-(3-(2-amino-3-(thiazol-2-yl)propanamido)propyl)-N-(3,4-dimethoxyphenyl)-1H-indole-5-carboxamide]

From US8552032B2, “Bicyclic derivatives useful as inhibitors of DPP-1” (Janssen Pharmaceutica NV, priority 2009, dated 2013)
